This is an account of results in paper PMC5539244, “2-Oxoesters: A Novel Class of Potent and Selective Inhibitors of Cytosolic Group IVA Phospholipase A2” (Scientific Reports, 2017).

Structures are written as SMILES. Where “and” joins values, the source holds several entries; their conditions need not be identical. Equal entries are not always repeated. Where two headings read alike, the source gives them in different places. A value given as a limit tells only on which side of the number the result lay.

One series addresses T1, human GVIA iPLA2 (Homo sapiens, UniProt O60733).
T1 sequence (O60733 1-806): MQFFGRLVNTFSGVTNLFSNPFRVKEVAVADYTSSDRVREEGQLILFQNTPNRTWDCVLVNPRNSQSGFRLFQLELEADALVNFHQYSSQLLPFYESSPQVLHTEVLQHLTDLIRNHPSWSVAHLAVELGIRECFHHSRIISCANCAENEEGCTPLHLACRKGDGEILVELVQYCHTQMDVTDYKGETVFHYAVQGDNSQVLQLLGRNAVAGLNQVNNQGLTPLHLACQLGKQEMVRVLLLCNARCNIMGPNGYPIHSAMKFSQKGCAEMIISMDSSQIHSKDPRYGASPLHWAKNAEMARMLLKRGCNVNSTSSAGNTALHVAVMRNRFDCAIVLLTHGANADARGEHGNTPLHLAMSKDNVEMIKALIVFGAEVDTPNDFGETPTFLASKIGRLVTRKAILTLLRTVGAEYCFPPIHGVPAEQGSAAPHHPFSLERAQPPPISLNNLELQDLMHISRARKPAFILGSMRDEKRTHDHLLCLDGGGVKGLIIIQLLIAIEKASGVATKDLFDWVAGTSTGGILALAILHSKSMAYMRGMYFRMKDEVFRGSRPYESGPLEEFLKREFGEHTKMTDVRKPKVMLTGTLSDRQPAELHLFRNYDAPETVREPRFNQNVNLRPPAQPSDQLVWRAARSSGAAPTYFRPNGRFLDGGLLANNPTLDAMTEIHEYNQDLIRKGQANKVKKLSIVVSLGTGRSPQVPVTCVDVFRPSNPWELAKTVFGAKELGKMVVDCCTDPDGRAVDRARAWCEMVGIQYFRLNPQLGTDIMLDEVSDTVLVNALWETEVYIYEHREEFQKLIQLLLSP
As to the kind of experiment: mixed micelle assay, GVIA iPLA2 inhibition. Format: biochemical. As to conditions: for inhibition at 0.091 mole fraction: read-out: GVIA iPLA2 % Inhibition.

A further series has as its target T2, human GV sPLA2 (Homo sapiens, UniProt P39877).
T2 sequence (P39877 21-138): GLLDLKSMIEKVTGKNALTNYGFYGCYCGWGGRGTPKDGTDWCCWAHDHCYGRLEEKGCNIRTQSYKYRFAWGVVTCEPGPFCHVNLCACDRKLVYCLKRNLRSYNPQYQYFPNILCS
As to the kind of experiment: mixed micelle assay, GV sPLA2 inhibition. Format: biochemical. As to conditions: read-out: GV sPLA2 % Inhibition.

The target in series [1] is T3, recombinant human GIVA cPLA2 (Homo sapiens, UniProt P47712).
T3 sequence (P47712 1-749): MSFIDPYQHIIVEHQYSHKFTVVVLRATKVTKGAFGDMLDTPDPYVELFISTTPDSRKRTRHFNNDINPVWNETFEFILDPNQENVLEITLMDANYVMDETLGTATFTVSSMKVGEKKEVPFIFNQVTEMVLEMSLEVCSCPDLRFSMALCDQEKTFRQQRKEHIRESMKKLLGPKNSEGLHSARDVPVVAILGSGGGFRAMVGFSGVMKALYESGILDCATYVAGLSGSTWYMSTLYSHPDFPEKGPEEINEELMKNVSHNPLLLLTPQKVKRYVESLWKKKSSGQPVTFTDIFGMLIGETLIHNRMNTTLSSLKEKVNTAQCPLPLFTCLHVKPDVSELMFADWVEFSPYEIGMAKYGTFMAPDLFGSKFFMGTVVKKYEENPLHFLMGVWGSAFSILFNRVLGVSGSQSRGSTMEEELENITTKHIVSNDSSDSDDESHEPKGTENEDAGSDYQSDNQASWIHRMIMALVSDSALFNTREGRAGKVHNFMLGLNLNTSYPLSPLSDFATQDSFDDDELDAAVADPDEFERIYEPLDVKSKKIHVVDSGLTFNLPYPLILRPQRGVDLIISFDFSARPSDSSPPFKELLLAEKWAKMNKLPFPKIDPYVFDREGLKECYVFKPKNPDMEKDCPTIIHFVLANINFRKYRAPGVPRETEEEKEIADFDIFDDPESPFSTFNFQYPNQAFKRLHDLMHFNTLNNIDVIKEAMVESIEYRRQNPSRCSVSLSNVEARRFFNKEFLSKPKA
As to the kind of experiment: mixed micelle assay, GIVA cPLA2 inhibition. Format: biochemical. The settings on record: for inhibition at 0.091 mole fraction: read-out: GIVA cPLA2 % Inhibition; for GIVA cPLA2 X I(50): mole fraction of inhibitor in total substrate interface giving 50% inhibition.

Series [2] deals with T3, recombinant human GIVA cPLA2. Details: method as in PMID 12086476, PMID 15214789. As to conditions: mixed micelle assay; cited from earlier work.
Where [3] appears, read: at 0.091 mole fraction of inhibitor, mixed micelles.

Broadly, the inhibition is the relative decrease from the control value, in per cent. On to `CC(C)(C)OC(=O)CCCOC(=O)C(=O)CCCCc1ccccc1` [16c, 4-(tert-Butoxy)-4-oxobutyl 2-oxo-6-phenylhexanoate], for which the inhibition at 0.091 mole fraction (at human GVIA iPLA2; on human GV sPLA2 (setting [3]); in series [1] (setting [3])) was less than 25% throughout.

On to `CCCCCCCCCCCCCCC(=O)C(=O)O` [12e, 2-Oxohexadecanoic acid], for which the values for the inhibition at 0.091 mole fraction (on human GVIA iPLA2; on human GV sPLA2 (setting [3]); in series [1] (setting [3])) were less than 25%, less than 25% and 78.4 ± 3.5%, respectively.

With `COC(=O)C(=O)CCCCc1ccc2ccccc2c1` [10b, Methyl 6-(naphthalen-2-yl)-2-oxohexanoate], the inhibition at 0.091 mole fraction on human GVIA iPLA2 (setting [3]) was more than 95%; at human GV sPLA2 (setting [3]), less than 25%; in series [1] (setting [3]) it was 55 ± 4%. In addition, the “GVIA iPLA2 X I(50)” value on human GVIA iPLA2 (mole fraction of inhibitor in total substrate interface giving 50% inhibition) was 0.0052 mole fraction and 0.0052 ± 0.0007 mole fraction.

Take `CCCCCCCCCCCCCCC(=O)C(=O)OCCCCC(=O)O` [17e, 5-((2-Oxohexadecanoyl)oxy)pentanoic acid]: the inhibition at 0.091 mole fraction at human GVIA iPLA2 (setting [3]) was 25%; at human GV sPLA2 it was less than 25%; in series [1] (setting [3]), more than 95%. Moreover, in series [1], the “GIVA cPLA2 X I(50)” value amounted to 0.00007 ± 0.00001 mole fraction.

A word on the melting point: it is the temperature of the solid-liquid transition. Turning to `CCCCCCCCCCCCCCC(=O)C(=O)OCCCC(=O)O` [17a, 4-((2-Oxohexadecanoyl)oxy)butanoic acid], the melting point was in the range of 76 to 78 °C. Moreover, the inhibition at 0.091 mole fraction at human GVIA iPLA2 was less than 25%. On human GV sPLA2, the inhibition at 0.091 mole fraction was less than 25%. In series [1], the “GIVA cPLA2 X I(50)” value amounted to 0.00008 ± 0.00001 mole fraction and the inhibition at 0.091 mole fraction was more than 95%.

As for `CCCCCCCCCCCCCCC(O)C(=O)OCCCC(=O)O` (centres unmarked) [compound 20, 4-((2-Hydroxyhexadecanoyl)oxy)butanoic acid], the inhibition at 0.091 mole fraction on human GVIA iPLA2 is less than 25%; on human GV sPLA2, 41 ± 0.2%; in series [1] it was less than 25%.

For `CCCCCCCCCCCCCCC(=O)C(=O)OC` [10e, Methyl 2-oxohexadecanoate], the inhibition at 0.091 mole fraction was determined as 69.4 ± 12.2% on human GVIA iPLA2, 27.5 ± 0.9% at human GV sPLA2 (setting [3]) and 68.2 ± 2.7% in series [1] (setting [3]).

`O=C(O)CCCCOC(=O)C(=O)CCCc1ccc(-c2ccccc2)cc1` [17h, 5-((5-([1,1′-Biphenyl]-4-yl)-2-oxopentanoyl)oxy)pentanoic acid]: the inhibition at 0.091 mole fraction at human GVIA iPLA2 (setting [3]) is 94 ± 1.4%; at human GV sPLA2, less than 25%; in series [1] (setting [3]), more than 95%. Besides, the “GIVA cPLA2 X I(50)” value in series [1] worked out at 0.0010 ± 0.0003 mole fraction.

Regarding `CCCCCCOc1ccc(CCCCC(=O)C(=O)OCCCC(=O)O)cc1` [17b, 4-((6-(4-(Hexyloxy)phenyl)-2-oxohexanoyl)oxy)butanoic acid], the values for the inhibition at 0.091 mole fraction (at human GVIA iPLA2; at human GV sPLA2; in series [1]) were less than 25%, 52.6 ± 5.3% and more than 95%, respectively. Besides, the “GIVA cPLA2 X I(50)” value in series [1] was 0.00289 ± 0.00043 mole fraction.

`O=C1NC(=O)/C(=C/c2ccc(C(=O)NC[C@@H]3C[C@@H](SC(c4ccccc4)(c4ccccc4)c4ccccc4)CN3C(=O)c3ccccc3C(=O)c3ccc(F)cc3F)cc2)S1` [compound 1, pyrrophenone]: in series [2], the “GIVA cPLA2 X I(50)” value is reported as 0.002 mole fraction.

In the case of `COC(=O)C(=O)CCCCc1ccccc1` [10a, Methyl 2-oxo-6-phenylhexanoate], the figures for the inhibition at 0.091 mole fraction (at human GVIA iPLA2 (setting [3]); at human GV sPLA2 (setting [3]); in series [1] (setting [3])) were 72 ± 4%, less than 25% and less than 25%, respectively.

Take `CCOC(=O)CCCOC(=O)C(=O)CCCCc1ccccc1` [compound 19, 4-Ethoxy-4-oxobutyl 2-oxo-6-phenylhexanoate]: the inhibition at 0.091 mole fraction at human GVIA iPLA2 is less than 25%; at human GV sPLA2 (setting [3]), less than 25%; in series [1] (setting [3]), 27.3 ± 4.8%.

As to `O=C(O)CCCOC(=O)C(=O)CCCCc1ccc(-c2ccccc2)cc1` [17d, 4-(6-(Biphenyl-4-yl)-2-oxohexanoyloxy)butanoic acid], the melting point lay in the range of 101 to 103 °C. In addition, the inhibition at 0.091 mole fraction on human GVIA iPLA2 is less than 25%. For the same compound, at human GV sPLA2, the inhibition at 0.091 mole fraction was less than 25%. In addition, in series [1], the “GIVA cPLA2 X I(50)” value is 0.00068 mole fraction and 0.00068 ± 0.00007 mole fraction; the inhibition at 0.091 mole fraction is more than 95%. Further, the “times less potent than 17a on GIVA cPLA2” value in series [1] (ratio of X I(50) values) is on record as “eight”.

With `CCCCCCCCCCOc1ccc(OCC(=O)Cn2cc(C(=O)OC)c3cc(C(=O)O)ccc32)cc1` [compound 4, reference compound], in series [1], the “GIVA cPLA2 X I(50)” value is 0.00008 mole fraction and 0.00008 ± 0.000005^c mole fraction; the inhibition at 0.091 mole fraction was more than 95%.

`O=C(O)CCCOC(=O)C(=O)CCCc1ccc(-c2ccccc2)cc1` [17g, 4-((5-([1,1′-Biphenyl]-4-yl)-2-oxopentanoyl)oxy)butanoic acid] showed a melting point of 58 to 60 °C. In addition, the inhibition at 0.091 mole fraction on human GVIA iPLA2 turned out to be 84 ± 1.5%. In addition, on human GV sPLA2, the inhibition at 0.091 mole fraction is less than 25%. In series [1], the “GIVA cPLA2 X I(50)” value is listed as 0.0065 ± 0.002 mole fraction and the inhibition at 0.091 mole fraction is more than 95%.
